Assay results published in PMC11589483, “Preparation and anti-colon cancer effect of a novel curcumin analogue (CA8): in vivo and in vitro evaluation” (Frontiers in Pharmacology, 2024).
Where two headings read alike, the source gives them in different places. Values belong to the molecule of their own block, whether it stands above or below them.

Experiments:
[1] = design: method as in Al-Hujaily et al., 2011; details: ref Al-Hujaily et al., 2011; cited from earlier work
[2] = Solubility in water by HPLC; format: physicochemical; details: 25°C, mass of solute dissolved at saturation in 100 g of solvent
Description: The solubility of the synthesized compounds in water was determined using high performance liquid chromatography (HPLC). First, 1.000 g of each compound was accurately weighed, placed in 100 g of water, and stirred at 25°C for a period of time. Then, the reaction system was allowed to stand for 1 h. The supernatant was quantitatively taken, diluted with methanol to volume, and centrifuged, and the solubility was determined using HPLC.

lung cancer cells A549 = test: MTT antiproliferative assay, A549; format: cell-based; details: Homo sapiens
Description: (§1) The human cancer cell lines A549, HepG2, MCF-7, Caco-2, and HeLa and the normal human liver cell line LO2 were all obtained from Shanghai Cell Bank of China. All cells were cultured in RPMI 1640 or DMEM supplemented with 10% fetal bovine serum, 100 U/mL penicillin, and 100 μg/mL streptomycin and incubated at 37°C under 5% CO2 (HEPA incubator class100 Thermo company). The medium was replaced three times a week. Cells used in all were in the exponential growth phase.
(§2) The cell inhibition rate was evaluated using the MTT assay. Briefly, cells were seeded in a 96-well plate at a density of 3–4 × 10^3 cells per well and incubated at 37°C for 24 h. The MCACs to be tested were dissolved in dimethyl sulfoxide (DMSO, Merck, Germany) and diluted to five concentrations (3.75, 7.5, 15, 30, 60 μM/L) with RPMI 1640 medium, with each dose analyzed in quadruplicate. The concentration of DMSO was always maintained below 1‰, a concentration that is nontoxic to cells. After incubation for 24 or 48 h, MTT reagent (5 mg/mL) was added to each well and the samples were incubated for 3 h at 37°C in the dark. The absorbance of formazan crystals dissolved in 150 µL of DMSO was measured at 570 nm using a microplate reader to identify the cytotoxic effect of the analogues.

liver cancer cells HepG2 = test: MTT antiproliferative assay, HepG2; format: cell-based; details: Homo sapiens
Description: as §1, §2

[3] = tested on: breast cancer cells MCF-7; test: MTT antiproliferative assay, MCF-7; format: cell-based; details: Homo sapiens
Description: as §1, §2

[4] = tested on: cervical cancer cells HeLa; test: MTT antiproliferative assay, HeLa; format: cell-based; details: Homo sapiens
Description: as §1, §2

[5] = tested on: colon cancer cells Caco-2; test: MTT antiproliferative assay, Caco-2; format: cell-based, human; details: for IC50: Homo sapiens, read-out: IC50 Caco2
Description: as §1, §2

[6] = tested on: normal human liver cell line LO2; test: MTT assay, normal liver cells LO2; format: cell-based
Description: as §1, §2

Caco-2 cells [7] = test: Clonogenic assay; format: cell-based, human; details: 4, 8, or 16 μM/L, 6 h exposure
Description: Caco-2 cells were seeded into a 6-well plate at a density of 1 × 10^3 cells per well and incubated overnight. Then, the medium was replaced, and CA8 was added at the prescribed concentrations (4, 8, or 16 μM/L). After 6 h, the drug-containing medium was replaced with RPMI 1640 medium.
Caco-2 cells in 6-well plates were incubated for 1–2 weeks until the appearance of the colonies, followed by staining with crystal violet and incubation for 1 h at room temperature. After staining, images were captured accordingly.

Caco-2 cells [8] = test: Apoptosis assay (Annexin V-FITC/propidium iodide flow cytometry); format: cell-based, human; details: 4, 8, 16 μM, 24 h
Description: The apoptotic effect of CA8 was assessed in Caco-2 cells according to the kit instructions. First, Caco-2 cells were treated with CA8 at dose of 4, 8, or 16 μM/L for 24 h. The cells were harvested and suspended in 500 μL annexin-binding buffer. Subsequently, the cells were stained with Annexin V-FITC for 15 min and then incubated with propidium iodide for 5 min at room temperature in the dark. Finally, all samples were evaluated via flow cytometry (FACS Calibur, BD, San Jose, CA, United States). The results obtained were analyzed using the FlowJo software, and the apoptotic rate was calculated.

Caco-2 cells [9] = test: Cell cycle analysis (flow cytometry); format: cell-based, human; details: 4, 8, 16 μM, 24 h
Description: Caco-2 cells treated with CA8 at dose of 4, 8, or 16 μM/L for 24 h, they were collected, washed with PBS, and fixed in 70% ethanol overnight. The fixed cells were washed twice with PBS, treated with RNase A (10 mg/mL) and resuspended in 50 μg/mL propidium iodide for staining. Finally, the cell cycle distribution was assessed via flow cytometry (BD Biosciences, CA).

[10] = tested on: AKT, JNK, and NF-κB signaling pathways and apoptosis-related proteins; test: Western blot of signaling and apoptosis proteins in Caco-2 cells; format: cell-based, human; details: Caco-2, 4, 8, 16 μM, 24 h, vs control
Description: The expression of apoptotic proteins and pathways was detected using western blot. Caco-2 cells treated with CA8 at a dose of 4, 8, or 16 μM/L for 24 h were collected and lysed with RIPA lysis buffer for 10 min. The concentration of total proteins was determined using a BCA protein quantitative kit. Total proteins were separated on an SDS-PAGE gel, transferred to PVDF membranes and incubated with 5% skim milk for 2 h. Subsequently, the PVDF membranes were incubated with primary antibodies (AKT 1:2000; Bcl-2 1:2000; Bax 1:5000; caspase-3 1:2,000; caspase-9 1:1000; P-AKT 1:1000; JNK 1:1000; P-JNK 1:1000; IKBα 1:2000; and β-actin 1:100000) at 4°C overnight. The membranes were rinsed three times with TBST and incubated with secondary antibodies (1:5000 dilution) for 2–3 h at room temperature. Finally, proteins were visualized using an ECL chemiluminescent kit (KF001, affinity). In the final step, the ImageJ software was used to analyze the results.

[11] = Pharmacokinetics evaluation after gavage; format: in vivo, Sprague Dawley (SD) rats; details: SD rats
Description: After the evaluation of the safety of CA8, 10 male Sprague Dawley (SD) rats were randomly divided into the CA8 and CU groups for the pharmacokinetic test ([Ye et al., 2020]). The rats were subjected to 1 week of adaptation and were fasted for 6 h before the experiment. CA8 (50 mg kg^−1) and CU (50 mg kg^−1) were administered via gavage. Blood samples were collected at 0.03, 0.08, 0.16, 0.25, 0.5, 1, 2, 4, 8 and 12 h and centrifuged at 5,000 rpm for 3 min to obtain the plasma. A mixture of ethyl acetate and methanol was then added to precipitate the proteins and separate the CA8 and CU from the plasma. The samples were then analyzed using HPLC.

Caco-2 xenograft tumors = test: In vivo anticancer activity, Caco-2 xenograft; details: Caco-2 xenograft; CA8 100 mg/kg, CU 100 mg/kg, tegafur 50 mg/kg, gavage every other day
Description: Twenty 5-week-old male BALB nude mice purchased from SPF (Beijing) Biotechnology Co., Ltd. were used for the in vivo pharmacodynamic experiment of CA8. Caco-2 cells (6 × 10^6 cells in 100 μL PBS) were harvested and subcutaneously injected into the right hip of the mice. Then, they were divided into four groups when the tumor volume reached 100 mm^3 and treated with saline, CU (100 mg/kg), tegafur (50 mg/kg), or CA8 (100 mg/kg) via gavage every other day. Tumor size and body weight were measured and recorded every other day. At the end of the experiment, the mice were sacrificed and tumors were harvested and weighed. Tumor volumes were calculated by measuring length (L) and width (W) according to the following formula: V = 0.5 × L × W^2. The tumor tissue was embedded in paraffin, cut into slices, stained with HE, and observed under a light microscope.

Structure (SMILES): COc1cc(C=C2CN(C)CC(=Cc3ccc(O)c(OC)c3)C2=O)ccc1O [PAC]
solubility in water, times that of CU [1]: 27 times

Solubility [2]: 0.00017 mg/100g
IC50 (lung cancer cells A549; A549, 24 h): 37.2 ± 2.9 µM
IC50 (lung cancer cells A549; A549, 48 h): 34.4 ± 1.5 µM
IC50 (liver cancer cells HepG2; HepG2, 24 h): 43.4 ± 2.9 µM
IC50 (liver cancer cells HepG2; HepG2, 48 h): 27.4 ± 0.3 µM
IC50 ([3]; MCF7, 24 h): 40 ± 2.7 µM
IC50 ([3]; MCF7, 48 h): 22.3 ± 1.6 µM
IC50 ([4]; 24 h): 58.3 ± 2.2 µM
IC50 ([4]; 48 h): 17.3 ± 0.8 µM
IC50 ([5]; Caco-2, 24 h): > 60 µM
IC50 ([5]; Caco-2, 48 h): 33 ± 2.1 µM
time after dosing until cleared from / still detected in plasma ([11]; oral 50 mg kg^−1): 2 h
AUC(0-t) ([11]; oral (gavage) 50 mg kg^−1): 35,697.63 μg/L*min
CLz ([11]; oral (gavage) 50 mg kg^−1): 900 mL/min/kg
Tmax ([11]; oral (gavage) 50 mg kg^−1): 30.00 min
Vz ([11]; oral (gavage) 50 mg kg^−1): 97.58 L/kg
Cmax ([11]; male, Sprague Dawley, rat, plasma, oral (gavage) 50 mg kg^−1): 380 ng/mL
MRT last ([11]; male, Sprague Dawley, rat, plasma, oral (gavage) 50 mg kg^−1, read-out: MRT(0-t) (converted)): 54 min
half-life ([11]; male, Sprague Dawley, rat, plasma, oral (gavage) 50 mg kg^−1, read-out: t1/2z): 74.8 min
Structure (SMILES): COc1cc(/C=C/C(=O)CC(=O)/C=C/c2ccc(O)c(OC)c2)ccc1O [CU, Curcumin]
SI Caco2 ([5]; 48 h, logarithm of ratio IC50 LO2 / IC50 cancer cells): −0.08
IC50 ([6]; 24 h): > 60 µM
IC50 ([6]; 48 h): 27.6 ± 1.36 µM
Caco-2 colony formation (Caco-2 cells [7]): did not have a significant inhibitory effect
induction of apoptosis (Caco-2 cells [8]): induced early and late apoptosis in a concentration-dependent manner
cell cycle arrest (Caco-2 cells [9]): induced S-phase arrest only to a lesser extent
expression of P-AKT [10]: inhibited the expression of P-AKT
expression of P-JNK and IκBα [10]: induced the expression of P-JNK and IκBα in a concentration-dependent manner
inhibitory effect on tumor growth (Caco-2 xenograft tumors): CA8 > tegafur > CU
